Assay [1] deals with T1, ADP/ATP translocase 3 (Homo sapiens, UniProt P12236).
T1 sequence (P12236 whole entry): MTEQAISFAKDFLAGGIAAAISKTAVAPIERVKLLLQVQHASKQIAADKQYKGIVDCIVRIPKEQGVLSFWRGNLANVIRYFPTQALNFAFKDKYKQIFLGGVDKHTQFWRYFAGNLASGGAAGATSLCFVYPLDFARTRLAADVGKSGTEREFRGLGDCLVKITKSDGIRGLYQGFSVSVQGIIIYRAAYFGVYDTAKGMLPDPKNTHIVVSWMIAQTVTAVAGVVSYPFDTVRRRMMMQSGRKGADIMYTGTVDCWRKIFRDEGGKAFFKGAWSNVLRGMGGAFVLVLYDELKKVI

For assay [2], the target named is T2, Serine/threonine-protein kinase ICK (Homo sapiens, UniProt Q9UPZ9).
T2 sequence (Q9UPZ9 whole entry): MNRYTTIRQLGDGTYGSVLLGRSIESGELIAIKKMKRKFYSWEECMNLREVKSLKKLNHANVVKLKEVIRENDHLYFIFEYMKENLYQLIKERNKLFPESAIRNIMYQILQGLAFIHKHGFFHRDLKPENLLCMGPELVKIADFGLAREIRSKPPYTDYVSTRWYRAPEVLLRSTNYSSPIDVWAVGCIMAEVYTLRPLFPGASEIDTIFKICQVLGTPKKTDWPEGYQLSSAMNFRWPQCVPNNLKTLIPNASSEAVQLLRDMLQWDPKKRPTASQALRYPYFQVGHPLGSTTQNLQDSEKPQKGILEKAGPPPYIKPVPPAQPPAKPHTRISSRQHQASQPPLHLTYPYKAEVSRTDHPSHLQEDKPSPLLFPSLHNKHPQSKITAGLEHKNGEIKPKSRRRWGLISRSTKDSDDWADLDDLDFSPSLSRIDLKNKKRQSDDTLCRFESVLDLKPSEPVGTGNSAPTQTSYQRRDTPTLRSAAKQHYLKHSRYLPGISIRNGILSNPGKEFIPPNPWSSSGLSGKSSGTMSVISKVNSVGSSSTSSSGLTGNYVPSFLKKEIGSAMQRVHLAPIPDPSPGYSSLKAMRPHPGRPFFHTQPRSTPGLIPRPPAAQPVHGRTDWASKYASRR

The target of assay [3] is T3, Serine/threonine-protein kinase D3 (Homo sapiens, UniProt O94806).
T3 sequence (O94806 whole entry): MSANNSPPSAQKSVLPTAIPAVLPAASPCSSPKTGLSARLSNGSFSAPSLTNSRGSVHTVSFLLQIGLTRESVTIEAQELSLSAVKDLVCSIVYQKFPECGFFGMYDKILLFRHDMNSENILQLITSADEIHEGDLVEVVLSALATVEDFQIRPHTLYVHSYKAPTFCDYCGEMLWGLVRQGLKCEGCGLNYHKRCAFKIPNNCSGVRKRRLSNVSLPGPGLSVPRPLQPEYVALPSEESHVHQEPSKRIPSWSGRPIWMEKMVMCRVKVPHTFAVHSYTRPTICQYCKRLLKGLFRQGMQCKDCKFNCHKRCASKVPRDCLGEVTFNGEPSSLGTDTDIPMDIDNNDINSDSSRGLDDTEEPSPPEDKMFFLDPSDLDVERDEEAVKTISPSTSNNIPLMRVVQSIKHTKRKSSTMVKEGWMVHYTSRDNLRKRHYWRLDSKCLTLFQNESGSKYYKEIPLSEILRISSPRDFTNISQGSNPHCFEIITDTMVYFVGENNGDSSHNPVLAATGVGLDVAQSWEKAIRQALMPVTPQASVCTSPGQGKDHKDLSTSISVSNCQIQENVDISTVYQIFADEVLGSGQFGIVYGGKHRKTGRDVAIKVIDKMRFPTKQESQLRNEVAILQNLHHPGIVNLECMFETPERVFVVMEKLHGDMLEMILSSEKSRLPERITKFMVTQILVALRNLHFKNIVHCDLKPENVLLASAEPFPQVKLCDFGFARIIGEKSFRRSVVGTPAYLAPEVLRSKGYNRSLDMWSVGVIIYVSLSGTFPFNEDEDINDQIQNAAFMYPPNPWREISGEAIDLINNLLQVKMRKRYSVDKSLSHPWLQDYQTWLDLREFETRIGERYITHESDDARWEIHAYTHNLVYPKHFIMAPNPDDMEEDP

Assay [4] concerns the target T4, Serine/threonine-protein kinase Nek1 (Homo sapiens, UniProt Q96PY6).
T4 sequence (Q96PY6 whole entry): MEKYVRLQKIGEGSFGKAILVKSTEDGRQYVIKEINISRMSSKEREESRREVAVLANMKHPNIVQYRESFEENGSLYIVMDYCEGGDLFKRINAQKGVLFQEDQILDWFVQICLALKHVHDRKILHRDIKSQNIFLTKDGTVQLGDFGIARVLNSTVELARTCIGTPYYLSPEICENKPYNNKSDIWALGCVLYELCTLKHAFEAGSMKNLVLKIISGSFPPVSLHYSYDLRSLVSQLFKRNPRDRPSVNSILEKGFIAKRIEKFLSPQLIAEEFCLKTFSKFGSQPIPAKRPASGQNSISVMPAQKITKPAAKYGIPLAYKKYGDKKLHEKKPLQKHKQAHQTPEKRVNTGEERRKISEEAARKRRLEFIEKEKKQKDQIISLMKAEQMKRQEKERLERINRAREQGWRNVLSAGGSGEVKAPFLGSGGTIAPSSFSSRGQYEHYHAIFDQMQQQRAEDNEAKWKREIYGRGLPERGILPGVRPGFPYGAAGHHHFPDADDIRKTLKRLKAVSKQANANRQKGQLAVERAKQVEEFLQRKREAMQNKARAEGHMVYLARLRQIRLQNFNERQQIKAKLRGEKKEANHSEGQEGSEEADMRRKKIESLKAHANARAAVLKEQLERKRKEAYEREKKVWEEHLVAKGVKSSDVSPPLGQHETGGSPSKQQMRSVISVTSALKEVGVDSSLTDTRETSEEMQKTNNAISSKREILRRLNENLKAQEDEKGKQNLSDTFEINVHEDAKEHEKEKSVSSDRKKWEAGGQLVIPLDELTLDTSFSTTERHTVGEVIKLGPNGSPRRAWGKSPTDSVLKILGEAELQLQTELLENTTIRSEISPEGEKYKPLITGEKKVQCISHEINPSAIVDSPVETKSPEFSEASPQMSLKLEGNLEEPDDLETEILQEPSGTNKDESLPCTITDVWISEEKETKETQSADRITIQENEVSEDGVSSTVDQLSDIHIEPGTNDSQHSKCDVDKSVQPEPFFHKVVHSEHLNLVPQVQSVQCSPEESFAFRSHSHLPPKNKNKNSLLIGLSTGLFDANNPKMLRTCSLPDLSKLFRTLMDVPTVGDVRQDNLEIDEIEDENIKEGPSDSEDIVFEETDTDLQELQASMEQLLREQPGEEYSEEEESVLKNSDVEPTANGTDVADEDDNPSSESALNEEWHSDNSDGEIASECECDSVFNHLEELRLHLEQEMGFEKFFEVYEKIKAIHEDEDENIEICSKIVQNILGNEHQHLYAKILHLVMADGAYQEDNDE

We go through 19 molecules from ChEMBL document CHEMBL3991601, “The target landscape of clinical kinase drugs” (Science, 2017).

Activity calls are given as the source filed them.
Further: in the data inactive means no Kd found up to 30 µM.

As a reminder, the Kd is a measure of binding affinity in units of concentration. Consider `CNC(=O)c1ccc(-c2cnc3ncc(Cc4ccc5ncccc5c4)n3n2)cc1F` [CAPMATINIB], for which the Kd in assay [1], in assay [2], in assay [3] and in assay [4] was > 30 µM (inactive) in each case.
For `CCS(=O)(=O)N1CC(CC#N)(n2cc(-c3ncnc4[nH]ccc34)cn2)C1` [BARICITINIB], the Kd in assay [1], in assay [2], in assay [3] and in assay [4] was > 30 µM (inactive) in each case.
Take `CNS(=O)(=O)Nc1nccc(Cc2c(C)c3ccc(Oc4ncccn4)cc3oc2=O)c1F` [AVUTOMETINIB]: the Kd in assay [1], in assay [2], in assay [3] and in assay [4] was > 30 µM (inactive) each time.
With `COc1ccc(-c2ccc3c(N4CCOC[C@@H]4C)nc(N4CCOC[C@@H]4C)nc3n2)cc1CO` [AZD-8055], the Kd in assay [1], in assay [2], in assay [3] and in assay [4] was > 30 µM (inactive) throughout.
With `O=C(O)[C@]1(Cc2cccc(Nc3nccs3)n2)CC[C@@H](Oc2cccc(Cl)c2F)CC1` [MK-5108], the Kd in assay [1], in assay [2], in assay [3] and in assay [4] was > 30 µM (inactive) each time.
As to `O=C1NC(=O)/C(=C/c2ccc3nccc(-c4ccncc4)c3c2)S1` [GSK-1059615], the Kd in assay [1], in assay [2], in assay [3] and in assay [4] was > 30 µM (inactive) each time.
For the molecule `C[C@@H](Nc1cc(F)cc(F)c1)c1cc(C(=O)N(C)C)cc2c(=O)cc(N3CCOCC3)oc12` [AZD-8186], the Kd in assay [1], in assay [2], in assay [3] and in assay [4] was > 30 µM (inactive) each time.
As for `Cc1c(F)cc(C(=O)NC2CC2)cc1-c1ccc(C(=O)NCC(C)(C)C)cn1` [LOSMAPIMOD], the Kd in assay [1], in assay [2], in assay [3] and in assay [4] was > 30 µM (inactive) each time.
In the case of `COc1cc(CCc2cc(NC(=O)c3ccc(N4C[C@@H](C)N[C@@H](C)C4)cc3)n[nH]2)cc(OC)c1` [AZD-4547], the Kd in assay [1], in assay [2], in assay [3] and in assay [4] was > 30 µM (inactive) throughout.
Turning to `C=CC(=O)N1CCC(Oc2cc3c(Nc4ccc(Cl)c(Cl)c4F)ncnc3cc2OC)CC1` [POZIOTINIB], the Kd in assay [1], in assay [2], in assay [3] and in assay [4] was > 30 µM (inactive) in each case.
`Cc1cc2c(F)c(Oc3ncnn4cc(OC[C@@H](C)OC(=O)[C@H](C)N)c(C)c34)ccc2[nH]1` [BRIVANIB ALANINATE]: the Kd in assay [1], in assay [2], in assay [3] and in assay [4] was > 30 µM (inactive) each time.
In the case of `C1=C/COCc2cc(ccc2OCCN2CCCC2)Nc2nccc(n2)-c2cccc(c2)COC/1` [PACRITINIB], the Kd was > 30 µM (inactive) in assay [1], 0.27 µM (active) in assay [2], > 30 µM (inactive) in assay [3] and > 30 µM (inactive) in assay [4].
Regarding `C[C@@H]1CN(Cc2ccc(F)cc2)[C@@H](C)CN1C(=O)c1cc2c(C(=O)C(=O)N(C)C)cn(C)c2cc1Cl` [TALMAPIMOD], the Kd in assay [1], in assay [2], in assay [3] and in assay [4] was > 30 µM (inactive) each time.
Take `CN1CCC(COc2cnc(-c3cccc(Cn4nc(-c5cccc(C#N)c5)ccc4=O)c3)nc2)CC1` [TEPOTINIB]: the Kd in assay [1], in assay [2], in assay [3] and in assay [4] was > 30 µM (inactive) throughout.
For the molecule `COc1cc2nccc(Oc3ccc(NC(=O)NC4CC4)c(Cl)c3)c2cc1C(N)=O` [LENVATINIB], the Kd in assay [1], in assay [2], in assay [3] and in assay [4] was > 30 µM (inactive) in each case.
Regarding `CNC(=O)c1ccc(C)c(-n2c(C)cc(OCc3ccc(F)cc3F)c(Br)c2=O)c1` [PH-797804], the Kd in assay [1], in assay [2], in assay [3] and in assay [4] was > 30 µM (inactive) each time.
As for `COc1cc2nccc(Oc3ccc(NC(=O)Nc4cc(C)on4)c(Cl)c3)c2cc1OC` [TIVOZANIB], the Kd in assay [1], in assay [2], in assay [3] and in assay [4] was > 30 µM (inactive) in each case.
For the molecule `C[C@@H](c1ccc2nccn2c1)n1nnc2ncc(-c3cnn(C)c3)nc21` [SAVOLITINIB], the Kd in assay [1], in assay [2], in assay [3] and in assay [4] was > 30 µM (inactive) each time.
Consider `N[C@@H]1CCCN(c2c(/C=C3\SC(=O)NC3=O)cccc2-c2ccccc2)C1`, for which the Kd in assay [1], in assay [2], in assay [3] and in assay [4] was > 30 µM (inactive) in each case.
